Structures can show the parent of a compound that is named as a salt.
Legend:
[1] = tested on: A549 human lung cancer cell line; test: Cell proliferation MTT assay, Example 4 (Table 8); assay type: cell-based; conditions: 72 h treatment, max DMSO 0.1%
[2] = tested on: HCT116 Colon; test: Cell proliferation, 72 h IC50 (Table 3); assay type: cell-based, human; conditions: read-out: 72 h IC50, 3-5 separate experiments
[3] = tested on: Panc-02 cells; test: CRT translocation to the cell membrane, flow cytometry (percent CRT+ cells); assay type: cell-based, murine
Protocol: Calreticulin (CRT) translocation from the ER to the cell membrane is a critical mechanistic step in ICD induction. To correlate the findings of ER and mitochondrial stress to ICD induction, murine cancer cell lines (Panc-02 pancreas and CT26 colon) were treated with 3 and assessed for cell membrane CRT translocation (FIG. 4).

[4] = tested on: A549 lung cancer cells; test: Cell proliferation, 72 h IC50 (Table 3); assay type: cell-based, human; conditions: read-out: 72 h IC50, 3-5 separate experiments
[5] = tested on: L929 fibroblasts; test: Cell proliferation, 72 h IC50 (Table 3); assay type: cell-based, human
Text: The initial rationale for preparing complexes 1-3 (shown below) involved a systems approach to circumventing the antioxidant network that helps give solid tumors their resiliency.

[6] = tested on: A549 human lung cancer cell line; test: Cell proliferation MTT assay, Example 3 (Table 5); assay type: cell-based; conditions: 72 h incubation
Protocol: According to previous literature reports, BSA binding can reduce the cytotoxicity of Au(I) bis-NHC complexes (Zou et al., 2014). […] The non-conjugated alcohol 1 and Auranofin were used as benchmark comparisons. Incubation was carried out for 72 h in all cases. […] A549 cells were harvested and seeded into 96-well culture plates (Costar 07-200-90) in 100 μL of culture medium. The cells were allowed to incubate overnight at 37° C. in the presence of 5% CO2. A549 cells were seeded at a density of 1500 cells/well. […] To each well of a 96 well plate was added 100 μL of the appropriate solution. […] After removal of the medium, the resulting formazan was dissolved in […] DMSO and the respective absorbances were measured at 560-650 nm using a microplate reader (Molecular Devices, Sunnyvale, CA). Absorbance values were corrected for background and then normalized to wells containing untreated cells to allow for plate-to-plate comparisons. The resulting dose response curves were subjected to linear regression analysis (Origin by OriginLab, Inc.) for determination of IC50 values. […] Maximum concentration of DMSO used is 0.1%. This concentration of DMSO was determined to be non-toxic in separate control experiments. […] The stock solution was further diluted 10-fold in RPMI media such that the maximum drug concentration used was 10 μM for the dose dependent MTT assay.

[7] = tested on: A2780 Ovarian; test: Cell proliferation, 72 h IC50 (Table 3); assay type: cell-based, human; conditions: read-out: 72 h IC50, 3-5 separate experiments
[8] = tested on: 2780CP Ovarian; test: Cell proliferation, 72 h IC50 (Table 3); assay type: cell-based, human; conditions: read-out: 72 h IC50, 3-5 separate experiments
[9] = tested on: CT26 mouse colorectal cancer cells; conditions: immunized with CT26 cells treated with oxaliplatin at 150 μM; challenged after 7 days
[10] = tested on: CT26 Colon; conditions: read-out: 72 h IC50, 3-5 separate experiments

Structure (SMILES)	IC50 [2]	IC50 [4]	IC50 [7]	IC50 [8]	other results
COc1cccc2c1C(=O)c1c(O)c3c(c(O)c1C2=O)C[C@@](O)(C(=O)CO)C[C@@H]3O[C@H]1C[C@H](N)[C@H](O)[C@H](C)O1 [Doxorubicin•HCl, Doxorubicin]	–	–	–	–	IC50 ([1]; Homo sapiens): 131 nM
CC(=O)OC[C@H]1O[C@@H]([S-])[C@H](OC(C)=O)[C@@H](OC(C)=O)[C@@H]1OC(C)=O.CCP(CC)CC.[Au+] [Auranofin]	1300 nM	1670 nM	–	–	CRT translocation to the cell membrane ([3]; flow cytometry, 3 at 1 μM, auranofin under the same conditions): ineffective; IC50 [1]: 2180 nM; cancer selectivity ([5]; L929 fibroblasts in comparison to A549 lung cancer cells): 2.5 fold; IC50 ([5]; read-out: 72 h IC50, L929 Fibroblasts, 72 h, 3-5 separate experiments): 4.2 µM; IC50 [6]: 2240 nM
N.N.[Cl][Pt][Cl] [Cisplatin]	–	1030 nM	330 nM	7.1 µM	–
O=C1[O][Pt]2([NH][C@@H]3CCCC[C@H]3[NH]2)[O]C1=O [Oxaliplatin]	500 nM	970 nM	150 nM	0.3 µM	concentration needed to achieve the same CRT+ signal ([3]; same CRT+ signal as 3 at 1 μM): 300 µM; mice remaining tumor-free at the end of the study [9]: 80%; IC50 [10]: 2000 nM
